{
  "source": "patent US11007274B2",
  "about": "“Compounds for medicinal applications” (Ausvir Therapeutics Pty LTD, priority 2015, dated 2021)",
  "key": {"CA/07/2009": {"test_system": "CA/07/2009", "assay": "microbe, parasite or virus in culture", "assay_type": "cell-based", "conditions": "unidentified influenza virus, Table 7"}, "Perth/16/2009": {"test_system": "Perth/16/2009", "assay": "microbe, parasite or virus in culture", "assay_type": "cell-based", "conditions": "unidentified influenza virus; Table 7"}, "Florida/4/2006": {"test_system": "Florida/4/2006", "assay": "microbe, parasite or virus in culture", "assay_type": "cell-based", "conditions": "unidentified influenza virus; Table 7"}, "A/Mississippi/03/01H274Y": {"test_system": "A/Mississippi/03/01H274Y", "assay_type": "cell-based, influenza virus"}, "[1]": {"test_system": "Influenza A virus H5N1, Hong Kong/213/2003", "assay": "microbe, parasite or virus in culture", "assay_type": "cell-based", "conditions": "Influenza A virus, H5N1"}, "[2]": {"test_system": "Influenza A virus H5N1, Hong Kong/213/2003", "assay": "microbe, parasite or virus in culture", "assay_type": "cell-based", "conditions": "Influenza A virus, H5N1", "remark": "listed apart in the source"}, "[3]": {"test_system": "Influenza A virus H3N2, Perth/16/2009", "assay": "microbe, parasite or virus in culture", "assay_type": "cell-based"}, "[4]": {"test_system": "Influenza A virus H3N2, Perth/16/2009", "assay": "microbe, parasite or virus in culture", "assay_type": "cell-based", "conditions": "Table 11, Neutral Red, read-out: EC50"}, "[5]": {"test_system": "Influenza A virus H1N1, California/07/2009", "assay": "microbe, parasite or virus in culture", "assay_type": "cell-based"}, "[6]": {"test_system": "Influenza A virus H1N1, California/07/2009", "assay": "microbe, parasite or virus in culture", "assay_type": "cell-based", "conditions": "Table 13, Neutral Red, read-out: EC50"}, "[7]": {"test_system": "Influenza A virus H5N1, Duck/MN/1525/81", "assay": "microbe, parasite or virus in culture", "assay_type": "cell-based"}, "[8]": {"test_system": "Influenza B virus, B/Brisbane/60/2008", "assay": "microbe, parasite or virus in culture", "assay_type": "cell-based"}, "[9]": {"test_system": "Influenza B virus, B/Brisbane/60/2008", "assay": "microbe, parasite or virus in culture", "assay_type": "cell-based", "conditions": "Table 18, Neutral Red"}, "[10]": {"test_system": "Influenza B virus, B/Florida/4/2006", "assay": "microbe, parasite or virus in culture", "assay_type": "cell-based"}, "[11]": {"test_system": "Influenza B virus, B/Florida/4/2006", "assay": "microbe, parasite or virus in culture", "assay_type": "cell-based", "conditions": "Table 19, Neutral Red (Cytopathic effect/Toxicity), B/Florida/4/2006, read-out: EC50"}, "CA/07/2009 virus H1N1": {"test_system": "CA/07/2009 virus H1N1", "assay": "Viral Plaque Reduction Assay (Table 22)", "assay_type": "cell-based", "conditions": "Influenza A virus"}, "A/PR/8 virus H1N1": {"test_system": "A/PR/8 virus H1N1", "assay": "Viral Plaque Reduction Assay (Table 23)", "assay_type": "cell-based, influenza virus", "conditions": "Influenza A virus"}, "hERG": {"target": "hERG (Homo sapiens, UniProt Q12809)", "sequence (Q12809 whole entry)": "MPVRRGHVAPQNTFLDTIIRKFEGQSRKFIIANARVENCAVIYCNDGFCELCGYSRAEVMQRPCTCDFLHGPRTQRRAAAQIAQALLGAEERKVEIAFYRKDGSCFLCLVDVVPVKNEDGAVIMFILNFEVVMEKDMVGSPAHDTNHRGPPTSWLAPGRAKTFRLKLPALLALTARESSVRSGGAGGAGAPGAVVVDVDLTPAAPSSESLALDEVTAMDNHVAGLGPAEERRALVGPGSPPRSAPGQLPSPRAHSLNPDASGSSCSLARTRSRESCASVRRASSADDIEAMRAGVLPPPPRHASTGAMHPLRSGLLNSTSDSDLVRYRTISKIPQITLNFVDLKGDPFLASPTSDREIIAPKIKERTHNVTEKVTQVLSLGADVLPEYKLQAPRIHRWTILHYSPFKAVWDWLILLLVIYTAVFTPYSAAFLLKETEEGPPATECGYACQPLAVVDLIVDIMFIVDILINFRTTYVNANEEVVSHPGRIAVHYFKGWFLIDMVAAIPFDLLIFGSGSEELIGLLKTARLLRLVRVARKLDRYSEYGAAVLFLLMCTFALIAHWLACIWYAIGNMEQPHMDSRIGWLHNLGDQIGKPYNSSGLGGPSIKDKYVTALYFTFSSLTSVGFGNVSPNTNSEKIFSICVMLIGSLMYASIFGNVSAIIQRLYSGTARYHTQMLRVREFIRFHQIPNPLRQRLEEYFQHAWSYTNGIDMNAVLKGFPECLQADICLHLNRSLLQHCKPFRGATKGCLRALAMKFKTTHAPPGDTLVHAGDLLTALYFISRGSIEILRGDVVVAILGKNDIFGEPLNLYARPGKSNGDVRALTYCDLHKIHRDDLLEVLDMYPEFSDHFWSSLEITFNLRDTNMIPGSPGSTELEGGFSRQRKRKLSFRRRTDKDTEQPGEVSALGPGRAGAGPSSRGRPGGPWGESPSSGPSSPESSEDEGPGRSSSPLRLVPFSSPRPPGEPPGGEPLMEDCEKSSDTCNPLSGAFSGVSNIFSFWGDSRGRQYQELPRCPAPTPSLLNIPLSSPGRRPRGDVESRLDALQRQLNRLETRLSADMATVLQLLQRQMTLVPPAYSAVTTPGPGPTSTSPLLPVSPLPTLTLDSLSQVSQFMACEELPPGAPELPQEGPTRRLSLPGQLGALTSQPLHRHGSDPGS"}, "kinases": {"test_system": "kinases", "assay": "KINOME scan profiling (Table 41)"}},
  "note": "Where “and” joins values, the source holds several entries; their conditions need not be identical. Equal values may be shown once. Read-outs that look alike come from different tables or passages of the source.",
  "data": [
    {"smiles": "CC(=O)N[C@H]1[C@H]([C@H](OC(=O)NCCCCCCCCCNC(=O)c2cc(C(=O)NCCCCCCCCCNC(=O)O[C@@H]([C@@H]3OC(C(=O)O)=C[C@H](NC(=N)N)[C@H]3NC(C)=O)[C@H](O)CO)c(C(=O)N[C@H](CC(=O)NCS(=O)(=O)O)C(=O)NCS(=O)(=O)O)cc2C(=O)N[C@H](CC(=O)NCS(=O)(=O)O)C(=O)NCS(=O)(=O)O)[C@H](O)CO)OC(C(=O)O)=C[C@@H]1NC(=N)N", "note": "[MD185, PK2PYR(Zn)2[(D-Asp)(NHCH2SO3)2]2]", "values": [
      {"measurement": "EC50", "setting": "CA/07/2009", "value": 3.2, "unit": "nM"},
      {"measurement": "EC50", "setting": "CA/07/2009; MDCK cell line", "value": 6, "unit": "ng/mL"},
      {"measurement": "EC50", "setting": "Perth/16/2009", "value": "< 0.00013 µg/mL and < 0.07 nM"},
      {"measurement": "EC50", "setting": "Florida/4/2006", "value": "< 0.00013 µg/mL and < 0.07 nM"},
      {"measurement": "EC50", "setting": "A/Mississippi/03/01H274Y", "value": 0.89, "unit": "nM"},
      {"measurement": "EC90", "setting": "[1]", "value": "< 0.32", "unit": "ng/mL"},
      {"measurement": "EC50", "setting": "[2]", "value": "< 0.32", "unit": "ng/mL"},
      {"measurement": "EC90", "setting": "[3]", "value": 0.86, "unit": "ng/mL"},
      {"measurement": "EC50", "setting": "[4]", "value": 0.1, "unit": "ng/mL"},
      {"measurement": "EC90", "setting": "[5]", "value": 0.26, "unit": "ng/mL"},
      {"measurement": "EC50", "setting": "[6]", "value": 0.15, "unit": "ng/mL"},
      {"measurement": "EC90", "setting": "[7]", "value": 1.53, "unit": "ng/mL"},
      {"measurement": "EC50", "setting": "[8]", "value": 6, "unit": "ng/mL"},
      {"measurement": "EC50", "setting": "[9]", "value": 6.2, "unit": "ng/mL"},
      {"measurement": "EC50", "setting": "[10]", "value": 6, "unit": "ng/mL"},
      {"measurement": "EC50", "setting": "[11]", "value": 6.2, "unit": "ng/mL"},
      {"measurement": "EC50", "setting": "CA/07/2009 virus H1N1", "value": "9.5e-05 µg/mL and 0.0514 nM"},
      {"measurement": "EC50", "setting": "A/PR/8 virus H1N1", "value": 4.26, "unit": "nM"},
      {"measurement": "hERG IC50", "setting": "hERG", "value": "not calculable"},
      {"measurement": "Number of Hits", "setting": "kinases", "value": 0}
    ]}
  ]
}
